Source: patent US4454330A, “Two-functional-group-containing terpenoids, processes for the preparation of the same, and anti-ulcer agents containing the same” (Eisai Co., Ltd., priority 1980, dated 1984)

Test system: cold-restaint stress ulcer
Assay: Effect on cold-restraint stress ulcer (Levine' method, rats)
Assay type: in vivo, rats (SD family
Details: SD rats, female, about 170 g, 8-10 weeks age
Description: (1) Effect on Cold-Restaint Stress Ulcer
The inhibition effect of the test compound on the cold-restaint stress ulcer was determined according to the Levine' method using rats (SD family, female, weight about 170 g, 8-10 weeks age). The test compounds are set forth below.

| Compound | Inhibition Ratio (%) on the occurrence of the cold restrictive stress ulcer |
| --- | --- |
| CC(=CCO)CCC=C(C)CCC=C(C)C(=O)O [Compound A, 12-Hydroxy-2,6,10-trimethyl-2,6,10-dodecatrienoic acid] | 74.6% |
| CC(=CCO)CCC=C(C)CCC=C(C)CCC=C(C)C(=O)O [Compound C, 16-Hydroxy-2,6,10,14-tetramethyl-2,6,10,14-hexadecatetraenoic acid] | 79.2% |
| CC(=CCO)CCC=C(C)CCC=C(C)CCC=C(C)CCC=C(C)C(=O)O [Compound D, 20-Hydroxy-2,6,10,14,18-pentamethyl-2,6,10,14,18-eicosapentaenoic acid] | 49.5% |
